Tested on: blood barrier of rabbit brain
Assay: Detection of liposomes in the brain and spinal cord by confocal microscopy after intravenous injection (Example 1)
Format: in vivo, New Zealand White male rabbits
Conditions: rabbits, 1.5 ml/kg intravenous, one and four hours following administration
Procedure: A particular liposome formulation was tested for crossing the blood barrier of rabbit brain.
The rabbits were perfused with 200-250 ml PBS prior to spinal cord excision (post the border of the medulla oblongata (between C1 to C2)) and brain removal as shown in FIG. 1 (frontal neocortex (frontal part), corpus callosum, hippocampus and mid brain)). The brains and spinal cords were harvested and fixed (3.7% formalin/PBS) for 10 minutes (37% formalin diluted with PBS 1:10, to a final concentration of 3.7%). The fixed brains and spinal cords were embedded in OCT compound, placed into plastic molds and frozen at −70° C. 8-10 μm tissue slices were cut using a cryotome at −20° C. and fixed on slides after which they were rinsed with PBS for 5 minutes. Finally, slides were mounted using mounting solution (80% glycerol/20% PBS) and sealed with nail polish. Slides were analyzed using confocal microscopy.

Row | Molecule | detection of fluorescent marker in spinal cord and brain tissue
1 | O=S(=O)(O)c1cc(O)c2ccc3c(S(=O)(=O)O)cc(S(=O)(=O)O)c4ccc1c2c34 [1-Hydroxypyren-3,6,8-Trisulfonic acid] | can be detected
2 | Rhodamin-DSPE | can be detected

Source: patent publication US10722463B2, “Compositions and methods using same for delivering agents into a target organ protected by a blood barrier” (Zuli Holdings Ltd., priority 2005, dated 2020)
